The target in the data set is Multidrug resistance-associated protein 1 (Homo sapiens, UniProt P33527). Nature of the data set: TP_TRANSPORTER: drug resistance in MRP1-expressing NIH/3T3 cells. The note with it: mouse, nih3t3. The data set is classed as functional, cell-based.
Multidrug resistance-associated protein 1, sequence (P33527 whole entry): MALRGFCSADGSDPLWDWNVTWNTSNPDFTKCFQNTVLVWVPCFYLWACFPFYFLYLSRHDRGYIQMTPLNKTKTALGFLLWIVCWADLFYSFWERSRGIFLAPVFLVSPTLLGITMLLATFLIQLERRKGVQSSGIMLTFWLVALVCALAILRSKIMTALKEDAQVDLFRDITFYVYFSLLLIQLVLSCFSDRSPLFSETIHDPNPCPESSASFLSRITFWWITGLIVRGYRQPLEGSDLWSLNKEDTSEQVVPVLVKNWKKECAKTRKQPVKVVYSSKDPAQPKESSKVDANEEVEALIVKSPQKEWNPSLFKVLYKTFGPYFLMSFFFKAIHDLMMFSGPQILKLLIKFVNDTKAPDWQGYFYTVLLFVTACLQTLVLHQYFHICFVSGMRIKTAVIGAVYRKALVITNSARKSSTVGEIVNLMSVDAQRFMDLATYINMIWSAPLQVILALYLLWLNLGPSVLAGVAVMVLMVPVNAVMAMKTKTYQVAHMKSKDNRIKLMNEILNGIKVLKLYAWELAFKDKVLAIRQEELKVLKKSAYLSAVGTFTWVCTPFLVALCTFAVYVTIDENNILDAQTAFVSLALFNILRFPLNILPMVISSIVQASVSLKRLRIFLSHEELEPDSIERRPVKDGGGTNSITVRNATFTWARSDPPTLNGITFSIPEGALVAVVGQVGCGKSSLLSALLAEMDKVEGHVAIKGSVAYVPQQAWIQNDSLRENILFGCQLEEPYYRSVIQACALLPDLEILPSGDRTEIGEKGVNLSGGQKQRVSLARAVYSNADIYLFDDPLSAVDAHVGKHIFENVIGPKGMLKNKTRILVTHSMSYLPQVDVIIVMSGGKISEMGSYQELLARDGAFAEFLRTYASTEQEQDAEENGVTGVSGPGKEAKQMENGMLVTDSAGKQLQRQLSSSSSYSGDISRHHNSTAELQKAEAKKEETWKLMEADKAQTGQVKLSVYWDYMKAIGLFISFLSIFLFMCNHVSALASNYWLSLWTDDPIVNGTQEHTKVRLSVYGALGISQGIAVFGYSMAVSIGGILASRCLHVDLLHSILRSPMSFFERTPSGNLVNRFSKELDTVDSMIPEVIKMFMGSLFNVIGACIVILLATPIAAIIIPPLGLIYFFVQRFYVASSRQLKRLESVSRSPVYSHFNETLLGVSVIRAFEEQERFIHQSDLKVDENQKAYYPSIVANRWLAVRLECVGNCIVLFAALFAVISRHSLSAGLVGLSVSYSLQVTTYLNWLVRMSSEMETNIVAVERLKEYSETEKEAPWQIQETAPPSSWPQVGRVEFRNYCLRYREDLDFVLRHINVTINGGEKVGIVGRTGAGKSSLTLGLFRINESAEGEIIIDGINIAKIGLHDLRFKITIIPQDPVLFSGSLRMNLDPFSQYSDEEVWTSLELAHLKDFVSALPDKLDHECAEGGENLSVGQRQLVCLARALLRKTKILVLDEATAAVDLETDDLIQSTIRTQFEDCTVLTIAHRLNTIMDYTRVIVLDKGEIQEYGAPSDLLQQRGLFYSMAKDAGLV
Turning to `CC(C)OC(=O)Nc1cccc(Cl)c1` [CHLORPROPHAM], the Activity entry was “substrate []”.

Turning to `COc1cccc2c1C(=O)c1c(O)c3c(c(O)c1C2=O)C[C@@](O)(C(=O)CO)C[C@@H]3O[C@H]1C[C@H](N)[C@H](O)[C@H](C)O1` [DOXORUBICIN], the Activity entry was “substrate []”.

With `COP(=S)(OC)Oc1ccc([N+](=O)[O-])c(C)c1` [FENITROTHION], the Activity result was “substrate []”.

Turning to `COc1ccc(C(c2ccc(OC)cc2)C(Cl)(Cl)Cl)cc1` [METHOXYCHLOR], the Activity entry is “substrate []”.

These data come from ChEMBL document CHEMBL2073994, “The multidrug resistance-associated protein 1 transports methoxychlor and protects the seminiferous epithelium from injury” (Toxicol Lett, 2003).
